US20190374650A1, “COMPOSITIONS AND METHODS FOR DELIVERY OF POLYMER/BIOMACROMOLECULE CONJUGATES” (THE REGENTS OF THE UNIVERSITY OF MICHIGAN, priority 2017, published 2019)
Where no end group is shown, it is not given here.

Tests used:
BMDCs [1] = assay: BMDC activation: expression of co-stimulatory markers CD86 and CD40 by flow cytometry; type: cell-based, C57BL/6 mice; settings: conjugate alone, w/o CpG; 1% modification, 2 nmol SIINFEKL/ml, 24 h
Protocol: (§1) Femur and tibia were harvested from C57BL/6 mice. Cells were collected by flushing bone marrow with a syringe, passing the cell suspension through a cell strainer (mesh size=40 μm), followed by centrifugation (200×g, 5 min). Cells were then seeded into non-tissue culture treated petri-dishes at a density of 2×10^6 cells/ml in DC culture media (RPMI 1640 supplemented with 10% FBS, 1% penicillin-streptomycin, 50 μM β-mercaptoethanol, and 20 ng/ml GM-CSF), cultured at 37° C. with 5% CO2. Culture media were refreshed on days 3, 6, and 8, and BMDCs were used on days 8-12.
(§2) BMDCs were seeded at a density of 8×10^5 cells/ml into 12-well plates. Cells were incubated with PGA120k-MAL-CSSSIINFEKL or PGA120k-SS-CSSSIINFEKL (1% modification of carboxyl groups, 2 nmol SIINFEKL/ml) w/or w/o 0.5 μg/ml CpG in 1 ml BMDC culture media for 24 h. Cells were harvested, blocked with anti-CD16/32 at room temperature for 10 min, and then stained with anti-CD11c-PECy7, anti-CD40-APC, anti-CD86-PE, or anti-SIINFEKL-H-2K^b-PE at room temperature for 30 min. Finally, cells were washed and resuspended in 2 μg/ml DAPI solution and analyzed by a flow cytometer (Cyan 5, Beckman Coulter).

BMDCs [2] = assay: Antigen cross-presentation: presentation of SIINFEKL on DCs by flow cytometry; type: cell-based, C57BL/6 mice; settings: 2 nmol SIINFEKL/ml, 24 h
Protocol: as §1, §2

[3] = system: neo-antigen-specific CD8+ T cells; assay: Intratumoral injection into established MC38 tumors: tetramer staining of PBMCs; type: in vivo, C57BL/6 mice; settings: MC38 tumor-bearing mice, day 7 after first injection
Protocol: (§3) C57BL/6 mice were subcutaneously injected with 5×10^5 MC38 colon carcinoma cells (a gift from W. Zou, University of Michigan) into the right flank and randomly sorted for treatment after 9 days when the tumor volumes reached approximately 50-70 mm^3. Fifty μl PBS solution of ASMTNMELM, CpG, ASMTNMELM+CpG, PEI-SS-CSSASMTNMELM+CpG (10 μg ASMTNMELM and 15 μg CpG), or blank PBS (50 μl) were directly injected into tumor every week for total three times. PBMCs were collected on day 7 after the first sample injection and tetramer staining was performed for flow cytometric analysis of neo-antigen-specific CD8+ T cells. The sizes of the tumors were measured every three days using a digital caliper, and the tumor volume was estimated by ellipsoidal calculation as V=(width)^2×length×π/6. The mice were euthanized when the tumors reached the maximum permitted size (1.5 cm in any dimension) or ulcerations occurred.

MC38 tumors = assay: In vivo cancer immunotherapy against established MC38 tumors: tumor volume and survival; parameters: species or system C57BL/6 mice; settings: three weekly intratumoral injections
Protocol: as §3

BMDCs [4] = assay: BMDC activation: IL-12p70 secretion (ELISA); type: cell-based; settings: alone, w/o CpG; 2 μg/ml, 2 h
Protocol: (§4) BMDCs were plated at a density of 1×10^5 cells/well in 96 well plates in RPMI 1640 supplemented with 10% FBS and 1% PS, and incubated overnight at 37° C. under 5% CO2. For cytotoxicity assessment, cells were incubated with either free form (CSSASMNTMELM) or PEI conjugate (PEI-SS-CSSASMTNMELM) of the neo-antigen peptide for 24 h at concentrations of 1, 5, 10, 20, 50, 100 μg/ml. The viability was measured by adding CCK-8 to each well of the plate according to manufacturer's instruction followed by absorbance measurement at 450 nm using a microplate reader after 2 h incubation. Relative viability was calculated as to the ratio of the absorbance to the non-sample treated cells (0 μg/ml). To investigate BMDC activation, cells were treated with PBS or PEI-SS-CSSASMTNMELM, PBS+CpG, PEI-SS-CSSASMTNMELM+CpG (2 μg/ml PEI-SS-CSSASMTNMELM and 1 μg/ml CpG) for 2 h. The fresh cell culture media were placed after sample washing and collected for cytokine analysis after further 24 h incubation. The concentration of IL-12p70 in the media was measured using ELISA kit by following the manufacturer's instruction.

BMDCs [5] = assay: BMDC cytotoxicity (CCK-8 viability); type: cell-based; settings: 24 h incubation, concentration as high as 100 μg/ml
Protocol: as §4

OT-I T cells = assay: Proliferation of antigen-specific CD8+ T cells in vitro (CFSE dilution); type: cell-based, OT-I mice; settings: BMDCs pre-activated 24 h, 0.5 nmol SIINFEKL/ml, in the presence of 0.5 μg/ml CpG; co-culture 3 days
Protocol: SIINFEKL-specific CD8^+ T cells were isolated from OT-I mice using an EasySep™ Mouse CD8^+ T Cell Isolation Kit (STEMCELL Technologies, Cambridge, Mass.), and stained by CFSE. 5×10^4 BMDCs were seeded into 96-well plates, and incubated with PGA120k conjugates (1% modification of carboxyl groups, 0.5 nmol SIINFEKL/ml) w/or w/o 0.5 μg/ml CpG for 24 h. BMDCs were then washed by PBS, followed by co-culture with 5×10^4 CFSE-labeled OT-I T cells for 3 days. Cells were then harvested, blocked with anti-CD16/32, and stained with anti-CD8-APC on ice for 30 min. Cells were washed and resuspended in 2 μg/ml DAPI solution and analyzed for fluorescence dilutions of CFSE by flow cytometry.

PGA-SS-CSSSIINFEKL: 120 kD poly(L-glutamic acid) linked by reduction-sensitive disulfide bond to peptide CSSSIINFEKL, 1% modification of carboxyl groups (not fully specified; poly(L-glutamic acid) 120 kD disulfide conjugate)
CD40 expression in DCs (BMDCs [1]): slightly increased CD40 expression | presentation of SIINFEKL on DCs (BMDCs [2]; w/o CpG, compared with soluble peptide and PGA-MAL-CSSSIINFEKL): significantly higher presentation of SIINFEKL on DCs | presentation of SIINFEKL on DCs (BMDCs [2]; with 0.5 μg/ml CpG): further increased by CpG

ASMTNMELM [neo-antigen]
neo-antigen-specific CD8+ T cell response [3]: failed to elicit | time by which all animals succumbed to tumors (MC38 tumors): ≤ 50 days

PEI-SS-CSSASMTNMELM: PEI (MW 25,000), PEGylated, disulfide-linked via SPDP to neo-antigen peptide CSSASMTNMELM (PEGylated PEI disulfide-linked via SPDP)
activation of BMDCs (secretion of IL-12p70) (BMDCs [4]): failed to induce activation of BMDCs | BMDC viability (BMDCs [5]): maintained their viability

CSSASMTNMELM [free peptide, CSSASMTNMELM]
BMDC viability (BMDCs [5]): maintained their viability

5′-tccatgacgttcctgacgtt-3′ [CpG]
neo-antigen-specific CD8+ T cell response [3]: failed to elicit | survival rates (MC38 tumors): ~20% | tumor progression (MC38 tumors): slowed tumor progression

SIINFEKL [soluble peptide, model antigen peptide]
proliferation of OT-I T cells (OT-I T cells): > 60%

PGA-MAL-CSSSIINFEKL: 120 kD poly(L-glutamic acid) linked by non-sensitive maleimide-thiol bond to peptide CSSSIINFEKL, 1% modification of carboxyl groups (not fully specified; poly(L-glutamic acid) 120 kD maleimide-thiol conjugate)
activation of DCs (expression of CD86 and CD40) (BMDCs [1]): failed to activate DCs
